# In US7932271B2, “Heterocyclic methyl sulfone derivative” (Daiichi Pharmaceutical Co., Ltd., priority 2003, dated 2011):
# pIC50: −log10 of the molar value.
# Legend:
# [1] = tested on: β amyloid protein (Aβ) secreted by E35 cells (human glioma H4 cells transfected with APP751 gene); assay: Inhibition of production or secretion of β-amyloid protein (Aβ) in E35 cells, sandwich ELISA of the supernatant; assay type: cell-based; settings: 24 hours with test compound, compared to DMSO control cells, read-out: Activity (IC50, concentration at which 50% inhibition of Aβ production was observed)
# Protocol: The inhibitory activity against formation of β amyloid protein of the compounds obtained in Examples was tested in the method described bellow.
# E35 cells were established by transfecting APP751 gene which is a wild type human β-amyloid protein precursor into human glioma cells (H4 cells).
# E35 cells were seeded in 96-well plates and cultured in an incubator of 37° C. by using a Dulbecco's Modified Eagle's Medium containing 10% inactivated fetal bovine serum (10% FBS-DMEM). Twenty-four hours after seeding, a test compound dissolved in DMSO so as to give its concentration to be 2000 times as much as that of the final concentration was added to the medium in an amount of 1/2000 capacity of the culture medium. The cells were cultured for additional twenty-four hours, and then the supernatant was collected. The amount of β amyloid protein (Aβ) secreted in the supernatant was measured by the sandwich enzyme-linked immunosorbent assay (ELISA). Described specifically, a monoclonal antibody 25-1, which recognized Aβ25-35, was immobilized onto a 96-well ELISA plate, followed by the incubation at 4° C. for 16 to 20 hours. After washing with a phosphate buffer (pH 7.4) (PBS), a biotinylated monoclonal antibody MA32-40, which recognized Aβ1-8, was added, and the plate was kept at 4° C. for 2 hours. After the supernatant was removed and the well was washed sufficiently with PBS, alkaline phosphatase-conjugated streptavidin was added to the plate. Absorbance was measured while adding BlouPhos (manufactured by KPL) as a substrate. An amount of Aβ contained in the supernatant was calculated using a calibration curve separately created using Aβ of a known concentration. IC50 of the test compound was presented as the concentration at which 50% inhibition of Aβ production was observed compared to the amount of Aβ of the control cells to which only DMSO was added.
# When there is at least 10-times difference between the IC50 and the concentration at which cytotoxicity appears, then the compound is judged as a compound having an inhibitory activity against production or secretion of β amyloid protein.
pIC50 [1],melting point,Structure (SMILES)
6.30 to 7.30,130 to 131 °C,"O=S(=O)(c1ccc(Cl)cc1)C(c1cccnc1)c1cc(F)ccc1F (stereo not drawn) [Example 19, 3-[[(4-Chlorophenyl)sulfonyl]-(2,5-difluorophenyl)methyl]pyridine]"
7.30 to 8.30,181 to 183 °C,"Nc1cc(C(c2cc(F)ccc2F)S(=O)(=O)c2ccc(Cl)cc2)c(F)cn1 (stereo not drawn) [Example 203, [4-[(4-Chlorophenylsulfonyl)(2,5-difluorophenyl)methyl]-5-fluoropyridin-2-yl]amine]"
> 8.30,200 to 203 °C,"O=S(=O)(CCN1CCCCC1)Nc1cc(C(c2cc(F)ccc2F)S(=O)(=O)c2ccc(Cl)cc2)c(Cl)cn1 (stereo not drawn) [Example 278, N-[5-Chloro-4-[(4-chlorophenylsulfonyl)(2,5-difluorophenyl)methyl]pyridin-2-yl]-2-piperidin-1-ylethanesulfonamide]"
6.30 to 7.30,158 to 160 °C,"O=C(O)CCc1ccc(C(c2cc(F)ccc2F)S(=O)(=O)c2ccc(Cl)cc2)nc1 (stereo not drawn) [Example 46, 3-[6-[(4-Chlorophenylsulfonyl)-(2,5-difluorophenyl)methyl]pyridin-3-yl]propionic acid]"
7.30 to 8.30,180 to 181 °C,"O=S(=O)(c1ccc(Cl)cc1)C(c1cc(F)ccc1F)c1cc(N2CCOCC2)ncc1Cl (stereo not drawn) [Example 59, 4-[5-Chloro-4-[(4-chlorophenylsulfonyl)-(2,5-difluorophenyl)methyl]pyridin-2-yl]morpholine]"
7.30 to 8.30,187 to 189 °C,"Nc1cc(C(c2cc(F)ccc2F)S(=O)(=O)c2ccc(Cl)cn2)c(Cl)cn1 (stereo not drawn) [Example 241, [5-Chloro-4-[(5-chloropyridin-2-ylsulfonyl)(2,5-difluorophenyl)methyl]pyridin-2-yl]amine]"
> 8.30,219 to 221 °C,"O=S(=O)(CCN1CCOCC1)Nc1cc(C(c2cc(F)ccc2F)S(=O)(=O)c2ccc(Cl)cc2)c(Cl)cn1 (stereo not drawn) [Example 280, N-[5-Chloro-4-[(4-chlorophenylsulfonyl)(2,5-difluorophenyl)methyl]pyridin-2-yl]-2-morpholin-4-ylethanesulfonamide]"
> 8.30,215 to 218 °C,CN1CCN(S(=O)(=O)Nc2cc(C(c3cc(F)ccc3F)S(=O)(=O)c3ccc(Cl)cc3)c(Cl)cn2)CC1 (stereo not drawn) [Example 271]
6.30 to 7.30,151 to 152 °C,"O=S(=O)(c1ccc(Cl)cc1)C(c1ccc(CO)cn1)c1cc(F)ccc1F (stereo not drawn) [Example 43, 2-[(4-Chlorophenylsulfonyl)-(2,5-difluorophenyl)methyl]-5-(hydroxymethyl)pyridine]"
